Data published in ChEMBL document CHEMBL5104230, “Preparation, biological evaluation and QSAR analysis of urea substituted 2,4-diamino-pyrimidine anti-malarials” (RSC Med Chem, 2022).
Converted amounts (≈) assume the structure as drawn.

Key:
HepG2 [1] = assay: Cytotoxicity against human HepG2 cells assessed as cell growth inhibition incubated for 72 hrs by resazurin dye based fluorescence assay; assay type: functional; details: HepG2, 72 h
Plasmodium falciparum [2] = assay: Antimalarial activity against chloroquine sensitive Plasmodium falciparum 3D7 infected in human RBC assessed as parasite growth inhibition incubated for 72 hrs by SYBR Green dye based fluorescence assay; assay type: functional, organism-based; details: 3D7, Erythrocyte
[3] = Partition coefficient, logD of compound in octanol and phosphate buffer at pH 7.4 incubated for 6 hrs under shaking condition by HPLC-UV analysis; assay type: physicochemical
[4] = Aqueous solubility of compound in PBS buffer at pH 7.4 by HPLC-UV analysis; assay type: physicochemical
[5] = Metabolic stability in human liver microsome assessed as intrinsic clearance at 0.5 uM incubated upto 30 mins by UPLC-MS/MS analysis; assay type: ADME; details: microsomes, 0.5 h
[6] = Metabolic stability in CD1 mouse liver microsome assessed as intrinsic clearance at 0.5 uM incubated upto 30 mins by UPLC-MS/MS analysis; assay type: ADME; details: microsomes, 0.5 h
[7] = biological target: Serine/threonine-protein kinase pim-1 (Homo sapiens) (UniProt P11309); assay: Inhibition of human PIM1 at 1 uM incubated for 30 mins in presence of [gamma-33P]ATP by kinase selectivity assay
Chain of Serine/threonine-protein kinase pim-1 (Homo sapiens) (P11309 whole entry, looked up): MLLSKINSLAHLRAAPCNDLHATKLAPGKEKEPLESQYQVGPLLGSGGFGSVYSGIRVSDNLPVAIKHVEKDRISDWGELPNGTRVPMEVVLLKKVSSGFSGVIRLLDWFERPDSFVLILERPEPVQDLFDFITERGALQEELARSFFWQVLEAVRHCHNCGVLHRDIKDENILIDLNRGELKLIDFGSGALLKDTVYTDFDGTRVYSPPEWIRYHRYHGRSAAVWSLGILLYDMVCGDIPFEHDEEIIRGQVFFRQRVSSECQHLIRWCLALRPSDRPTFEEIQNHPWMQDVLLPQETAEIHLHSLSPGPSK

[8] = biological target: Cyclin-dependent kinase 2 (Homo sapiens) (UniProt P24941); assay: Inhibition of human CDK2 at 1 uM incubated for 30 mins in presence of [gamma-33P]ATP by kinase selectivity assay
[9] = biological target: Mitogen-activated protein kinase 3 (Homo sapiens) (UniProt P27361); assay: Inhibition of human ERK1 at 1 uM incubated for 30 mins in presence of [gamma-33P]ATP by kinase selectivity assay
Chain of Mitogen-activated protein kinase 3 (Homo sapiens) (P27361 whole entry): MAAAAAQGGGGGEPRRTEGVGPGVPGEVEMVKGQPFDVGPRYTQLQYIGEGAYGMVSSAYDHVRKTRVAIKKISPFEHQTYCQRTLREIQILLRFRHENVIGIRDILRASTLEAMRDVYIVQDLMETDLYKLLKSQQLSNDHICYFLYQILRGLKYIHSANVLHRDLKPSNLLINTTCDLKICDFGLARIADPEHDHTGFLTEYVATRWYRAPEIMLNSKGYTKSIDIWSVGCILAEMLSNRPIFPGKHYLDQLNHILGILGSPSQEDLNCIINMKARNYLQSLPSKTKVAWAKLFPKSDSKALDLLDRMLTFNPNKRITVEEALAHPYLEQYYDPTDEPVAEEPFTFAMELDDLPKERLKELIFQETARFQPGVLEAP

[10] = biological target: Mitogen-activated protein kinase 8 (Homo sapiens) (UniProt P45983); assay: Inhibition of human JNK1 at 1 uM incubated for 30 mins in presence of [gamma-33P]ATP by kinase selectivity assay
Chain of Mitogen-activated protein kinase 8 (Homo sapiens) (P45983 whole entry): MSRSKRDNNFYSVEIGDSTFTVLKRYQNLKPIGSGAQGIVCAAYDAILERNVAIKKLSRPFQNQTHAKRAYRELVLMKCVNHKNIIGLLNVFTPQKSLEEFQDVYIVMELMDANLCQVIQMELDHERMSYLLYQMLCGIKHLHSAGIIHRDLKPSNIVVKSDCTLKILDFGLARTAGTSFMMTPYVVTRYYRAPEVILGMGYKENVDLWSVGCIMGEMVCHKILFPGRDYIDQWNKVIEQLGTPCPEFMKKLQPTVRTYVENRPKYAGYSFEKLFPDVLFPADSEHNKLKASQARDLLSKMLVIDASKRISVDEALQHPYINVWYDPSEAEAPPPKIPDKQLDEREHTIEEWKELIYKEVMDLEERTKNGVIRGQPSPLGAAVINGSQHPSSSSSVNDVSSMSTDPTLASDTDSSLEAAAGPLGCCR

[11] = biological target: T1, Tyrosine-protein kinase JAK3 (Homo sapiens) (UniProt P52333); assay: Inhibition of human JAK3 at 1 uM incubated for 30 mins in presence of [gamma-33P]ATP by kinase selectivity assay
T1 sequence (whole entry): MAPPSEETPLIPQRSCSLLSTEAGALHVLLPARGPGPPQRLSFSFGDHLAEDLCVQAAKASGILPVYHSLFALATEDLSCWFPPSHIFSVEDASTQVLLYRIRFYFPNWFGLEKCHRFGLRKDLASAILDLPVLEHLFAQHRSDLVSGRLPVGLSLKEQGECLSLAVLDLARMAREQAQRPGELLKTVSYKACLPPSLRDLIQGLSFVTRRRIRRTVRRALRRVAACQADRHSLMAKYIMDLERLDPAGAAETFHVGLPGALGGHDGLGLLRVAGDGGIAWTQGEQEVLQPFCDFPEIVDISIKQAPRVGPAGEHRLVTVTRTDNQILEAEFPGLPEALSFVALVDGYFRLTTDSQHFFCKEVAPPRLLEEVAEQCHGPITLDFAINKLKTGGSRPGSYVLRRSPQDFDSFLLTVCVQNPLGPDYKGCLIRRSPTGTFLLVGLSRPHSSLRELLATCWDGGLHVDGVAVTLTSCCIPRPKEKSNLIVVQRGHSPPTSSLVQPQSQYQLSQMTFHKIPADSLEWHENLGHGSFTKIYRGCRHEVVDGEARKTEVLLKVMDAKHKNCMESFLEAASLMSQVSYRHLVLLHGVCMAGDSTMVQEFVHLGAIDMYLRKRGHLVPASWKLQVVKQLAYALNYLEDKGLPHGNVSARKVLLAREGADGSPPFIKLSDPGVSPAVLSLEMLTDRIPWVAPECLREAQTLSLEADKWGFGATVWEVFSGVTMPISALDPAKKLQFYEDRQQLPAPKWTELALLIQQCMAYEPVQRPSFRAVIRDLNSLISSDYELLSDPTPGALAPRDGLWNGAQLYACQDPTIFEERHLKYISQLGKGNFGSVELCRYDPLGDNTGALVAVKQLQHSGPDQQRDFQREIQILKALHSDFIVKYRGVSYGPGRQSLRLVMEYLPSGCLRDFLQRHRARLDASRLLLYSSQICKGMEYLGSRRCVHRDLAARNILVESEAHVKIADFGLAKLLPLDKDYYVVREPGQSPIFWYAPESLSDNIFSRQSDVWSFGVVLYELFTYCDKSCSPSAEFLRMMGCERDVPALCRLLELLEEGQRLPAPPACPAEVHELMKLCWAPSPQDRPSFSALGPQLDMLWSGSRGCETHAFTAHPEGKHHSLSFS

[12] = biological target: Mitogen-activated protein kinase kinase kinase 1 (Homo sapiens) (UniProt Q13233); assay: Inhibition of human MEKK1 at 1 uM incubated for 30 mins in presence of [gamma-33P]ATP by kinase selectivity assay
Chain of Mitogen-activated protein kinase kinase kinase 1 (Homo sapiens) (Q13233 whole entry): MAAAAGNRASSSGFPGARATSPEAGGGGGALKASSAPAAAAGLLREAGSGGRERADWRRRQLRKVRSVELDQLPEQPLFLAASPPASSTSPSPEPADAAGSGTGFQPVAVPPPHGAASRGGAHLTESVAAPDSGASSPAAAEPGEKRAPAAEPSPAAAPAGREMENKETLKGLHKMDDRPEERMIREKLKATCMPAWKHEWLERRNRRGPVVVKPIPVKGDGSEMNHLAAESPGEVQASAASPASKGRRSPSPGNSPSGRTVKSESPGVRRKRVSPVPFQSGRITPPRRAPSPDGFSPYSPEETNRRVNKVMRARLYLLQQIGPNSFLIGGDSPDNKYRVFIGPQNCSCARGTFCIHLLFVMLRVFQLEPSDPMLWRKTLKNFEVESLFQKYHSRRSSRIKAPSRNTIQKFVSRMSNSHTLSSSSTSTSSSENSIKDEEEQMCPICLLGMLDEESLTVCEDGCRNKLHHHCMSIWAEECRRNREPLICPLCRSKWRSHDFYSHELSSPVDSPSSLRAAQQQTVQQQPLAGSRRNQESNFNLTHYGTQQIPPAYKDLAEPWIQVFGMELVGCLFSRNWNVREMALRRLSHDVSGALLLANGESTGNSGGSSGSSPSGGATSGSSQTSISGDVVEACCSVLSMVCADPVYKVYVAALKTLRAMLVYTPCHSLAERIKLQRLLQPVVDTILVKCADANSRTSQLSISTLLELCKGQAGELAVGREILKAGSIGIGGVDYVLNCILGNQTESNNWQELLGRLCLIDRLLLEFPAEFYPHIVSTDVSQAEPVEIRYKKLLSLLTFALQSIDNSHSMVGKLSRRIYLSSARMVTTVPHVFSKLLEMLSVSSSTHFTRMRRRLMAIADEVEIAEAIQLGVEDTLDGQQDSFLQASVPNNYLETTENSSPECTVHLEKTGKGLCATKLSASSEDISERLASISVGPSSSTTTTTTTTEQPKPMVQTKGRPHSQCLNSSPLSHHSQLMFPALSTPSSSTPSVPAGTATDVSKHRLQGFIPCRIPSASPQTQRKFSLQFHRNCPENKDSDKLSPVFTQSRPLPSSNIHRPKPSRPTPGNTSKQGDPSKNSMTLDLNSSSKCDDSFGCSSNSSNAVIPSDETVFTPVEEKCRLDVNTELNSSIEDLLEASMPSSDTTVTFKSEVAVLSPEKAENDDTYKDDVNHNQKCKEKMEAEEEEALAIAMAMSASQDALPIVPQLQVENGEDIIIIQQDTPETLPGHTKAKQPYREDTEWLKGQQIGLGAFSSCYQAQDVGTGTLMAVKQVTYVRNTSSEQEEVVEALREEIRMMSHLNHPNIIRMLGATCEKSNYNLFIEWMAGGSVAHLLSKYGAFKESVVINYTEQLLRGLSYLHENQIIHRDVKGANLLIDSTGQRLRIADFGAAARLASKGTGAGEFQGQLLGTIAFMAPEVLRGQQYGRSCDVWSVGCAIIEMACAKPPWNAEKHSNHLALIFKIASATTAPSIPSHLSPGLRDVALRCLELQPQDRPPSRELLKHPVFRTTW

[13] = biological target: Receptor tyrosine-protein kinase erbB-4 (Homo sapiens) (UniProt Q15303); assay: Inhibition of human HER4 at 1 uM incubated for 30 mins in presence of [gamma-33P]ATP by kinase selectivity assay
[14] = biological target: T2, Mitogen-activated protein kinase kinase kinase 7 (Homo sapiens) (UniProt O43318); assay: Inhibition of human TAK1 at 1 uM incubated for 30 mins in presence of [gamma-33P]ATP by kinase selectivity assay
T2 sequence (whole entry): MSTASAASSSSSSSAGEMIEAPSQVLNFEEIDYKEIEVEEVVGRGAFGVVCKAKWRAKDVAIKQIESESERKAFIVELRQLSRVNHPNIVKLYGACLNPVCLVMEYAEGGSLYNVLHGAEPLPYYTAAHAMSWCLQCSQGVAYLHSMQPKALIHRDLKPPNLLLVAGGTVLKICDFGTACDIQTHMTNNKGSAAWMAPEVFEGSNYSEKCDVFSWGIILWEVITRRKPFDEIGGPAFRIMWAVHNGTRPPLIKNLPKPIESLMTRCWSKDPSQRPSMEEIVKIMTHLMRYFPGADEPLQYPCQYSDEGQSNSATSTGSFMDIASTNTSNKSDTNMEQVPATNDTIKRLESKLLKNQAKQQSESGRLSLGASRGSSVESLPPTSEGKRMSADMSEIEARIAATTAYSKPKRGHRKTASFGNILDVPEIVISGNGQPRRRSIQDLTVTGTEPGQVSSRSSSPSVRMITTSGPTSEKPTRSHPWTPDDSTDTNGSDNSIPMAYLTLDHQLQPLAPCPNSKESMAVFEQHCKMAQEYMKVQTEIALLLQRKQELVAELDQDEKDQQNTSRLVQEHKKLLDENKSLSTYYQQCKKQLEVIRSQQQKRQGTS

[15] = biological target: T3, Aurora kinase A (Homo sapiens) (UniProt O14965); assay: Inhibition of human AURA at 1 uM incubated for 30 mins in presence of [gamma-33P]ATP by kinase selectivity assay
T3 sequence (whole entry): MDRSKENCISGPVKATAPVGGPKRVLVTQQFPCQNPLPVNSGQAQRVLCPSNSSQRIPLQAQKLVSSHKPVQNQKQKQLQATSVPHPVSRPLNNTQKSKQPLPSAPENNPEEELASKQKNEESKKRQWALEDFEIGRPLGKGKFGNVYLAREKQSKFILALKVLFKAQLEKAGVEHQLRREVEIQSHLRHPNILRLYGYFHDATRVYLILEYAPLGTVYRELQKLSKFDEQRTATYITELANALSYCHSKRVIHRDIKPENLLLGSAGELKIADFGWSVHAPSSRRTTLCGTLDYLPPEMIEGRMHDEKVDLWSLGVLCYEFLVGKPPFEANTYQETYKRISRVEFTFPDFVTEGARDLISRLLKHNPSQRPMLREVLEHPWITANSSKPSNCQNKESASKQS

[16] = biological target: Vascular endothelial growth factor receptor 1 (Homo sapiens) (UniProt P17948); assay: Inhibition of human VEGFR1 at 1 uM incubated for 30 mins in presence of [gamma-33P]ATP by kinase selectivity assay
Chain of Vascular endothelial growth factor receptor 1 (Homo sapiens) (P17948 whole entry): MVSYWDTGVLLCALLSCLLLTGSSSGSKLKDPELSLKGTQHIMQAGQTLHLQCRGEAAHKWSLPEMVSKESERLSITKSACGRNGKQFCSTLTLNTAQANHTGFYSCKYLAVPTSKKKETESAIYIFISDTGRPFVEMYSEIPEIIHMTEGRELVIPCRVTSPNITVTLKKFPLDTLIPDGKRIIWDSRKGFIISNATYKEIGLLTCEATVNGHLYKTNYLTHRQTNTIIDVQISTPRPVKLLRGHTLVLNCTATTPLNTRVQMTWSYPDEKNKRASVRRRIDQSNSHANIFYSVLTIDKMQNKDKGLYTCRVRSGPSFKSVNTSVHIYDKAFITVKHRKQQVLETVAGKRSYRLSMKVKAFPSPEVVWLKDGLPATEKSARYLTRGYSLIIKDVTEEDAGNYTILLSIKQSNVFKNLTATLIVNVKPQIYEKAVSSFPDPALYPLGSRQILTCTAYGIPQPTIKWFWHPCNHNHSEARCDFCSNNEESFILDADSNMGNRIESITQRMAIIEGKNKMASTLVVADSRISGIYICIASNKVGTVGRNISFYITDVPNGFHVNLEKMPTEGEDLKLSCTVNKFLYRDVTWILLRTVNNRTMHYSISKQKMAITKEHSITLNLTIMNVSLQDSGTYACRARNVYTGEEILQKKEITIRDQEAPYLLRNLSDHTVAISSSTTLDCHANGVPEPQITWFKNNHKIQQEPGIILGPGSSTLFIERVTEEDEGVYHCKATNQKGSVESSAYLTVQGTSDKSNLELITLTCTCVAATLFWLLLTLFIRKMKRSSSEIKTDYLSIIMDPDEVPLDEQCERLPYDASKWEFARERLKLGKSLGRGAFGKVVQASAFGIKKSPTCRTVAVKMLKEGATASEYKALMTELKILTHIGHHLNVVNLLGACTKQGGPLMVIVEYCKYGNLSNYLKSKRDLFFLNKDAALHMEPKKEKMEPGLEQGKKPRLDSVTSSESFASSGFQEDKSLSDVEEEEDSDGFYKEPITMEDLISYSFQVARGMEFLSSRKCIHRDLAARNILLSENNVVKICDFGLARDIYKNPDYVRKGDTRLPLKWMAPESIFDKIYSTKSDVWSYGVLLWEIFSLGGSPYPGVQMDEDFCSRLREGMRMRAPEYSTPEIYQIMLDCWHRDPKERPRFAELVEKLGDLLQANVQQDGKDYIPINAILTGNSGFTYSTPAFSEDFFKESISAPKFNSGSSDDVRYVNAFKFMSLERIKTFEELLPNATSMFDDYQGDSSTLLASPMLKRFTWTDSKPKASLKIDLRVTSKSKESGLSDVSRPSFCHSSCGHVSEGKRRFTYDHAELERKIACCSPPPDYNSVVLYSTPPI

[17] = Effective permeability in PBS at pH 7.4 incubated for 5 hrs by PAMPA based UPLC-MS/MS analysis; assay type: ADME
Plasmodium falciparum [18] = assay: Antimalarial activity against Plasmodium falciparum 3D7 assessed as reduction in parasite growth incubated for 72 hrs; assay type: functional, organism-based; details: 3D7, 72 h
HepG2 [19] = assay: Cytotoxicity against human HepG2 cells assessed as cell growth inhibition at 10 uM incubated for 48 hrs by CellTiter-Glo assay; assay type: functional; design: scale not given: the % may be the effect or the level left

Compound | IC50 (HepG2 [1]) [µM] | IC50 (Plasmodium falciparum [2]) [µM] | further results
O[C@@H](c1cc(C(F)(F)F)nc2c(C(F)(F)F)cccc12)[C@H]1CCCCN1 [(S,R)-MEFLOQUINE] | 11.5 | – | –
O=C(Nc1ccccc1)Nc1cccc(Nc2ncc(Cl)c(Nc3ccc4cn[nH]c4c3)n2)c1 | 3.5 | 2.5 | –
CN1CCN(S(=O)(=O)c2ccc(Nc3nccc(Nc4ccc5nc[nH]c5c4)n3)cc2)CC1 | > 25 | 1.2 | –
O=S(=O)(c1ccc(Nc2nccc(Nc3ccc4nc[nH]c4c3)n2)cc1)N1CCOCC1 | > 25 | 7.1 | –
Cn1cc2ccc(Nc3ccnc(Nc4cccc(NC(=O)Nc5ccccc5)c4)n3)cc2n1 | 12 | 0.22 | logD at 6 h [3]: ≥ 4; solubility [4]: 0.11 µg/mL (≈ 0.244 µM); CLH [5]: 9.1 mL/min/g; CLH [6]: > 50 mL/min/g; inhibition [7]: 102%; inhibition [8]: 78.7%; inhibition [9]: 65.6%; inhibition [10]: 68.8%; inhibition [11]: 51.4%; inhibition [12]: 52.4%; inhibition [13]: 67.7%; inhibition [14]: 35.8%; inhibition [15]: 22%; inhibition [16]: 4.1%
O=C(Nc1ccc(F)cc1)Nc1cccc(Nc2nccc(Nc3ccc4cn[nH]c4c3)n2)c1 | 12 | 0.4 | –
O=C(Nc1ccccc1)Nc1ccc(Nc2nccc(Nc3ccc4cn[nH]c4c3)n2)cc1 | 11 | 0.92 | –
Cc1c2ccc(Nc3ccnc(Nc4cccc(NC(=O)Nc5ccccc5)c4)n3)cc2nn1C | 2.4 | 0.17 | –
c1cc(Nc2ccc3cn[nH]c3c2)nc(Nc2ccc(OCCN3CCOCC3)cc2)n1 | 15 | 2.1 | –
O=C(Nc1ccc(F)cc1)Nc1ccc(Nc2nccc(Nc3ccc4cn[nH]c4c3)n2)cc1 | 3.5 | 0.79 | –
Cc1cccc(NC(=O)Nc2cccc(Nc3nccc(Nc4ccc5cn[nH]c5c4)n3)c2)c1 | 2.8 | 0.32 | –
Cc1cnc(Nc2cccc(NC(=O)Nc3ccccc3)c2)nc1Nc1ccc2cn[nH]c2c1 | 3.6 | 0.15 | –
O=C(Nc1ccccc1)Nc1cccc(Nc2nccc(Nc3ccc4cc[nH]c4c3)n2)c1 | 3.2 | 0.09 | logD at 6 h [3]: ≥ 4; solubility [4]: 0.44 µg/mL (≈ 1.01 µM); Papp at 5 h [17]: 10 ×10⁻⁶ cm/s; CLH [5]: 2.6 mL/min/g; CLH [6]: 3.8 mL/min/g; inhibition [7]: 80.2%; inhibition [8]: 78.8%; inhibition [9]: 75.6%; inhibition [10]: 59.6%; inhibition [11]: 57.7%; inhibition [12]: 40.7%; inhibition [13]: 42.3%; inhibition [14]: 17.1%; inhibition [15]: 16.5%; inhibition [16]: 2.4%
O=C(Nc1ccc(Nc2nccc(Nc3ccc4cn[nH]c4c3)n2)cc1)Nc1cccc(F)c1 | 6.6 | 1 | –
c1cc(Nc2ccc3nc[nH]c3c2)nc(Nc2ccc(OCCN3CCOCC3)cc2)n1 | > 25 | 1.2 | –
O=C(Nc1ccccc1)Nc1cccc(Nc2nccc(Nc3ccc4nc[nH]c4c3)n2)c1 | 11 | 0.54 | –
Cc1ccc(NC(=O)Nc2cccc(Nc3nccc(Nc4ccc5cn[nH]c5c4)n3)c2)cc1 | 11 | 0.72 | –
CN1CCN(c2ccc(Nc3ncc(C#N)c(Nc4ccccc4C(N)=O)n3)cc2)CC1 | – | – | EC50 (Plasmodium falciparum [18]): 0.04 µM; Activity (HepG2 [19]): 43%
O=C(Nc1ccccc1)Nc1cc(Nc2nccc(Nc3ccc4cn[nH]c4c3)n2)ccc1O | 25 | 1.4 | –
O=C(Nc1ccccc1)Nc1cccc(Nc2nccc(Nc3ccc4cn[nH]c4c3)n2)c1 | 8.2 | 0.47 | –
Cc1ccc(Nc2nccc(Nc3ccc4cn[nH]c4c3)n2)cc1NC(=O)Nc1ccccc1 | 8.9 | 1 | –
O=C1NC(Cc2ccc(Nc3nccc(Nc4ccc5cn[nH]c5c4)n3)cc2)CO1 (stereo not given) | 20 | 7.1 | –
Nc1cnc(Nc2cccc(NC(=O)Nc3ccccc3)c2)nc1Nc1ccc2cn[nH]c2c1 | > 25 | 2.9 | –
COc1ccc(NC(=O)Nc2ccccc2)cc1Nc1nccc(Nc2ccc3cn[nH]c3c2)n1 | 6.5 | 1.5 | –
CC(=O)c1ccc(NC(=O)Nc2ccc(N(C)c3ccnc(Nc4cccc(CS(C)(=O)=O)c4)n3)cc2)cc1 | – | – | EC50 (Plasmodium falciparum [18]): 0.12 µM; Activity (HepG2 [19]): 86%
O=C(Nc1ccccc1)Nc1cccc(Nc2nccc(Nc3ccc4[nH]ncc4c3)n2)c1 | 8.1 | 0.33 | –
c1cc(Nc2ccc3cn[nH]c3c2)nc(Nc2ccc(Cn3cncn3)cc2)n1 | 18 | 7.2 | –
O=C(Nc1ccccc1)Nc1cccc(Nc2ncc([N+](=O)[O-])c(Nc3ccc4cn[nH]c4c3)n2)c1 | > 25 | 6.4 | –
O=C(Nc1ccccc1)Nc1cccc(Nc2nccc(Nc3ccc4[nH]ccc4c3)n2)c1 | 5 | 0.093 | logD at 6 h [3]: ≥ 4; solubility [4]: 0.33 µg/mL (≈ 0.758 µM); CLH [5]: 5 mL/min/g; CLH [6]: 8.8 mL/min/g; inhibition [7]: 99.6%; inhibition [8]: 71.4%; inhibition [9]: 84%; inhibition [10]: 68%; inhibition [11]: 56.7%; inhibition [12]: 45.9%; inhibition [13]: 32.2%; inhibition [14]: 26.6%; inhibition [15]: 21.7%; inhibition [16]: 1.8%
